Converted amounts (≈) assume the structure as drawn.
Key:
[1] = AUC last in Sprague-Dawley rat at 10 mg/kg, po measured upto 24 to 48 hrs by LC-MS/MS analysis; format: ADME, organism-based; parameters: time upper 48 hrs, dose 10 mg/kg, time lower 24 hrs, route po; details: in vivo
[2] = Oral bioavailability in CD-1 mouse at 1 mg/kg measured for 0.5 to 24 hrs by LC-MS/MS analysis; format: ADME, organism-based; details: in vivo, time 0.5-24 hrs
[3] = Cmax in CD-1 mouse at 1 mg/kg, po measured for 0.5 to 24 hrs by LC-MS/MS analysis; format: ADME, organism-based; parameters: dose 1 mg/kg, time 0.5-24 hrs, route po; details: in vivo
[4] = AUC last in CD-1 mouse at 10 mg/kg, po measured for 0.5 to 24 hrs by LC-MS/MS analysis; format: ADME, organism-based; parameters: dose 10 mg/kg, time 0.5-24 hrs, route po; details: in vivo
[5] = Cmax in CD-1 mouse at 10 mg/kg, po measured for 0.5 to 24 hrs by LC-MS/MS analysis; format: ADME, organism-based; parameters: dose 10 mg/kg, time 0.5-24 hrs, route po; details: in vivo
[6] = Cmax in CD-1 mouse at 3 mg/kg, po measured for 0.5 to 24 hrs by LC-MS/MS analysis; format: ADME, organism-based; parameters: time 0.5-24 hrs, dose 3 mg/kg, route po; details: in vivo
[7] = Clearance in CD-1 mouse at 2.5 mg/kg, iv measured for 0.12 to 24 hrs by LC-MS/MS analysis; format: ADME, organism-based; details: in vivo, time 0.12-24 hrs
[8] = AUC last in CD-1 mouse at 3 mg/kg, po measured for 0.5 to 24 hrs by LC-MS/MS analysis; format: ADME, organism-based; parameters: time upper 24 hrs, time lower 0.5 hrs, dose 3 mg/kg, route po; details: in vivo
[9] = Half life in CD-1 mouse at 2.5 mg/kg, iv measured by LC-MS/MS analysis; format: ADME, organism-based; details: in vivo
[10] = AUC last in CD-1 mouse at 1 mg/kg, po measured for 0.5 to 24 hrs by LC-MS/MS analysis; format: ADME, organism-based; parameters: dose 1 mg/kg, time 0.5-24 hrs, route po; details: in vivo
dengue virus type 2 [11] = assay: In vivo antiviral activity against DENV-2/RL infected in AG129 mouse assessed as viral load reduction in plasma administered at 30 mg/kg, po bid for 3 days; format: functional; details: time 3 day
dengue virus type 2 [12] = assay: In vivo antiviral activity against DENV-2/RL infected in AG129 mouse assessed as viral load reduction administered at 1 to 30 mg/kg, po bid for 3 days; format: functional, organism-based; details: dose 1-30 mg/kg, time 3.0 day
[13] = Microsomal stability in mouse liver microsomes assessed as intrinsic clearance preincubated for 5 mins followed by NADPH addition measured upto 60 mins by LC-MS/MS analysis; format: ADME, Microsome; details: time < 65 min, read-out: CLH
[14] = Kinetic solubility of the compound in aqueous buffer at pH 7.4 measured after 4 hrs by UPLC/UV analysis; format: physicochemical; details: read-out: Kinetic_solubility
[15] = biological target: Voltage-gated inwardly rectifying potassium channel KCNH2 (Homo sapiens, UniProt Q12809); assay: Displacement of [3H]Dofetilide from human ERG; format: toxicity
[16] = Oral bioavailability in Sprague-Dawley rat at 10 mg/kg measured upto 24 to 48 hrs by LC-MS/MS analysis; format: ADME, organism-based; details: in vivo, time 24-48 hrs
dengue virus type 3 = assay: Antiviral activity against DENV-3 H87 infected in african green monkey Vero cells incubated for 24 hrs measured after 3 days post infection; format: functional, organism-based
[17] = Volume of distribution at steady state in Sprague-Dawley rat at 2.5 mg/kg, iv measured upto 24 hrs by LC-MS/MS analysis; format: ADME, organism-based; details: in vivo, read-out: Vdss
[18] = Clearance in Sprague-Dawley rat at 2.5 mg/kg, iv measured upto 24 hrs by LC-MS/MS analysis; format: ADME, organism-based; details: in vivo
dengue virus type 1 = assay: Antiviral activity against DENV-1 TC974#666 infected in african green monkey Vero cells incubated for 24 hrs measured after 3 days post infection; format: functional, organism-based; details: TC974#666, Vero
[19] = Oral bioavailability in CD-1 mouse at 10 mg/kg measured for 0.5 to 24 hrs by LC-MS/MS analysis; format: ADME, organism-based; details: in vivo, time 0.5-24 hrs
[20] = Cmax in Sprague-Dawley rat at 10 mg/kg, po measured upto 24 to 48 hrs by LC-MS/MS analysis; format: ADME, organism-based; parameters: time upper 48 hrs, dose 10 mg/kg, time lower 24 hrs, route po; details: in vivo
[21] = Microsomal stability in human liver microsomes assessed as intrinsic clearance preincubated for 5 mins followed by NADPH addition measured upto 60 mins by LC-MS/MS analysis; format: ADME, Microsome; details: time < 65 min, read-out: CLH
[22] = Microsomal stability in rat liver microsomes assessed as intrinsic clearance preincubated for 5 mins followed by NADPH addition measured upto 60 mins by LC-MS/MS analysis; format: ADME, Microsome; details: time < 65 min, read-out: CLH
[23] = Metabolic stability in human hepatocytes assessed as intrinsic clearance measured per million cells incubated upto 120 mins by MS analysis; format: ADME, cell-based, Hepatocyte; details: read-out: CLH
[24] = Volume of distribution at steady state in CD-1 mouse at 2.5 mg/kg, iv measured for 0.12 to 24 hrs by LC-MS/MS analysis; format: ADME, organism-based; details: in vivo, time 0.12-24 hrs, read-out: Vdss
[25] = Half life in Sprague-Dawley rat at 2.5 mg/kg, iv measured by LC-MS/MS analysis; format: ADME, organism-based; details: in vivo
dengue virus type 4 = assay: Antiviral activity against DENV-4 H241 infected in african green monkey Vero cells incubated for 24 hrs measured after 3 days post infection; format: functional, organism-based
[26] = Oral bioavailability in CD-1 mouse at 3 mg/kg measured for 0.5 to 24 hrs by LC-MS/MS analysis; format: ADME, organism-based; details: in vivo, time 0.5-24 hrs
dengue virus type 2 [27] = assay: Antiviral activity against DENV-2 16681 infected in african green monkey Vero cells incubated for 24 hrs measured after 3 days post infection; format: functional, organism-based; details: Dengue virus, 16681, Vero
[28] = Cmax in CD-1 mouse at 30 mg/kg, po measured for 0.5 to 24 hrs by LC-MS/MS analysis; format: ADME, organism-based; parameters: time upper 24 hrs, dose 30 mg/kg, time lower 0.5 hrs, route po; details: in vivo
[29] = AUC last in CD-1 mouse at 30 mg/kg, po measured for 0.5 to 24 hrs by LC-MS/MS analysis; format: ADME, organism-based; parameters: time upper 24 hrs, time lower 0.5 hrs, dose 30 mg/kg, route po; details: in vivo
[30] = Oral bioavailability in CD-1 mouse at 30 mg/kg measured for 0.5 to 24 hrs by LC-MS/MS analysis; format: ADME, organism-based; details: in vivo, time 0.5-24 hrs

Voltage-gated inwardly rectifying potassium channel KCNH2, sequence (Q12809 whole entry): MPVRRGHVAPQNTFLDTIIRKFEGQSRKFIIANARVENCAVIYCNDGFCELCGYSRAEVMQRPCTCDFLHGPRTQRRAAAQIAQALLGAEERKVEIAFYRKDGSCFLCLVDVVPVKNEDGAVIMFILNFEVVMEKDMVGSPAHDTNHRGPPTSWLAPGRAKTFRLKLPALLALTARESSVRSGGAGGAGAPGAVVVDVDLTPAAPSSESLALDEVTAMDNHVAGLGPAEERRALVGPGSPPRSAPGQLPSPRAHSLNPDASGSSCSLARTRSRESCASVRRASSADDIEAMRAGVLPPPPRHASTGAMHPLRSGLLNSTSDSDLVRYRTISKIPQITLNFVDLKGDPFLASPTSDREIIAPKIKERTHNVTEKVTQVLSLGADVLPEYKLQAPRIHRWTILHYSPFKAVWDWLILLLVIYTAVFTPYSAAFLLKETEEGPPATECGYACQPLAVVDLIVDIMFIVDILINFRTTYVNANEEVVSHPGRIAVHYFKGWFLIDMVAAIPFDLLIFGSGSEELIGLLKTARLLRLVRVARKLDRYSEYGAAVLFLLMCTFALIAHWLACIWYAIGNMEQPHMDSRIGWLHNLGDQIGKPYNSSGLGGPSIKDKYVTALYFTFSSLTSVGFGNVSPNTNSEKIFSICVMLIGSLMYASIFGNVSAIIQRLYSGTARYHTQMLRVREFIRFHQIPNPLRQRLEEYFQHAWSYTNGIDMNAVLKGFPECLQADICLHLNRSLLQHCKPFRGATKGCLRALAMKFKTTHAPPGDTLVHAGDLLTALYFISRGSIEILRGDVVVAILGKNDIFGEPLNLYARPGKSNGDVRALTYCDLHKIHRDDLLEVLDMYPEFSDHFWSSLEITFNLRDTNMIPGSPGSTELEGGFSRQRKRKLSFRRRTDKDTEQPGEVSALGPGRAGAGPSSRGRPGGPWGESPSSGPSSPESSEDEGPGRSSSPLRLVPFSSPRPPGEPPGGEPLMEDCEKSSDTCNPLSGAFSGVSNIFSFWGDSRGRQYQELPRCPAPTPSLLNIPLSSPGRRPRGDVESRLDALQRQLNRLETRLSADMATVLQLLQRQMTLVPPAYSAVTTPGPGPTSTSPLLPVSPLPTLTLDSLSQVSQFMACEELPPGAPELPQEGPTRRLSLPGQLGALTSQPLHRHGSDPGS

Row | SMILES | AUC(0-t) [1] [ng·h/mL] | AUC(0-t) [4] [ng·h/mL] | Cmax [5] [ng/mL] | Cmax [6] [ng/mL] | clearance [7] [mL/min/kg] | AUC(0-t) [8] [ng·h/mL] | half-life [9] [h] | Activity (dengue virus type 2 [11]) [log10/ml] | microsomal CLint [13] [µL/min/mg] | solubility kinetic at 4 h [14] [µM] | IC50 [15] [nM] | bioavailability [16] [%] | EC50 (dengue virus type 3) [nM] | Vd [17] [L/kg] | clearance [18] [mL/min/kg] | EC50 (dengue virus type 1) [nM] | bioavailability [19] [%] | Cmax [20] [ng/mL] | microsomal CLint [21] [µL/min/mg] | microsomal CLint [22] [µL/min/mg] | also measured
1 | COc1cc(NC(C(=O)c2c[nH]c3cc(OC)c(C)cc23)c2ccc(Cl)cc2OC)cc(OCCO)c1 (single isomer, unassigned; (+)) | 8390 | 19100 | 1760 | 345 | 6.3 | 4050 | 6.2 | 2.9 | < 8 | 0.2 (≈ 0.105 µg/mL) | > 10000 | 45 | 26 | 6.8 | 6.8 | 4 | 76 | 365 | < 8 | < 8 | bioavailability [2]: 35%; Cmax [3]: 83 ng/mL; AUC(0-t) [10]: 872 ng·h/mL; Activity (dengue virus type 2 [12]): Dose-Dependent Effect; hepatocyte CLint [23]: < 1.9 µL/min/1e6 cells; Vd [24]: 3.3 L/kg; half-life [25]: 11.5 h; EC50 (dengue virus type 4; Dengue virus, H241, Vero): 84 nM; bioavailability [26]: 54%; EC50 (dengue virus type 2 [27]): 1 nM
2 | COc1cc(NC(C(=O)c2c[nH]c3cc(F)ccc23)c2ccc(Cl)cc2OC)cc(OCCO)c1 (single isomer, unassigned; (+)) | 2430 | 6030 | 1720 | 435 | 16.6 | 1410 | 2 | 2 | 32 | 1 (≈ 0.499 µg/mL) | 10000 | 69 | 63 | 10.1 | 46.2 | 8 | 52 | 192 | < 8 | 9 | Cmax [28]: 5100 ng/mL; AUC(0-t) [29]: 29500 ng·h/mL; bioavailability [30]: 85%; hepatocyte CLint [23]: < 1.9 µL/min/1e6 cells; Vd [24]: 2 L/kg; half-life [25]: 6.4 h; EC50 (dengue virus type 4; vero): 240 nM; bioavailability [26]: 40%
